ChEMBL document CHEMBL1201862, “PubChem BioAssay data set” (2004)
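96-well plates; 48 h exposure; 5 concentrations. Endpoints by linear interpolation between flanking doses. Not reached: highest tested concentration assigned. The concentration for 50% growth inhibition is given as GI50.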 Active and inactive are the calls of the source. No stated cut-off is given here; in the data, active = GI50 up to about 1.1 µM and inactive = higher.

What was measured:
Test in all cases: inhibition of tumour cell growth, NCI panel, 48 h
[1] = tested on: 786-0
[2] = tested on: A549
[3] = tested on: ACHN
[4] = tested on: BT-549
[5] = tested on: CAKI-1
[6] = tested on: COLO 205
[7] = tested on: DU-145
[8] = tested on: EKVX
[9] = tested on: HCT-116
[10] = tested on: HCT-15
[11] = tested on: HL-60
[12] = tested on: HOP-62
[13] = tested on: HOP-92
[14] = tested on: HT-29
[15] = tested on: Hs-578T
[16] = tested on: IGROV-1
[17] = tested on: K562
[18] = tested on: KM12
[19] = tested on: LOX IMVI
[20] = tested on: M14
[21] = tested on: MCF7
[22] = tested on: MDA-MB-231
[23] = tested on: MDA-MB-435
[24] = tested on: MOLT-4
[25] = tested on: Malme-3M
[26] = tested on: NCI-H226
[27] = tested on: NCI-H23
[28] = tested on: NCI-H460
[29] = tested on: NCI-H522
[30] = tested on: NCI/ADR-RES
[31] = tested on: OVCAR-3
[32] = tested on: OVCAR-4
[33] = tested on: OVCAR-5
[34] = tested on: OVCAR-8
[35] = tested on: PC-3
[36] = tested on: RXF 393
[37] = tested on: SF-268
[38] = tested on: SF-295
[39] = tested on: SF-539
[40] = tested on: SK-MEL-28
[41] = tested on: SK-MEL-2
[42] = tested on: SK-MEL-5
[43] = tested on: SK-OV-3
[44] = tested on: SN12C
[45] = tested on: SNB-19
[46] = tested on: SNB-75
[47] = tested on: SR
[48] = tested on: SW-620
[49] = tested on: T47D
[50] = tested on: TK-10
[51] = tested on: U-251
[52] = tested on: UACC-257
[53] = tested on: UACC-62
[54] = tested on: UO-31
[55] = tested on: CCRF-CEM
[56] = tested on: HCC 2998
[57] = tested on: RPMI-8226

O=C1C=CC(=NNc2ccccc2)C=CC1=O
GI50 [1]: 18.4 µM (inactive) | GI50 [2]: 10.7 µM (inactive) | GI50 [3]: 8.05 µM (inactive) | GI50 [4]: 19.4 µM (inactive) | GI50 [5]: 13.9 µM (inactive) | GI50 [6]: 13.5 µM (inactive) | GI50 [7]: 18 µM (inactive) | GI50 [8]: 25.9 µM (inactive) | GI50 [9]: 13.3 µM (inactive) | GI50 [10]: 5.83 µM | GI50 [11]: 14 µM (inactive) | GI50 [12]: 10.8 µM (inactive) | GI50 [13]: 17.5 µM (inactive) | GI50 [14]: 13.6 µM (inactive) | GI50 [15]: 11 µM (inactive) | GI50 [16]: 7.94 µM (inactive) | GI50 [17]: 7.64 µM (inactive) | GI50 [18]: 12.4 µM (inactive) | GI50 [19]: 5.09 µM (inactive) | GI50 [20]: 12.9 µM (inactive) | GI50 [21]: 19.3 µM (inactive) | GI50 [22]: 14.9 µM (inactive) | GI50 [23]: 12.9 µM (inactive) | GI50 [24]: 3.1 µM (inactive) | GI50 [25]: 13.4 µM (inactive) | GI50 [26]: 11.7 µM (inactive) | GI50 [27]: 14 µM (inactive) | GI50 [28]: 11.3 µM (inactive) | GI50 [29]: 13.1 µM (inactive) | GI50 [30]: 11.6 µM (inactive) | GI50 [31]: 10.3 µM (inactive) | GI50 [32]: 7.46 µM (inactive) | GI50 [33]: 20.8 µM (inactive) | GI50 [34]: 20.4 µM (inactive) | GI50 [35]: 8.67 µM (inactive) | GI50 [36]: 99.8 µM (inactive) | GI50 [37]: 16.3 µM (inactive) | GI50 [38]: 6.85 µM (inactive) | GI50 [39]: 16 µM (inactive) | GI50 [40]: 14.4 µM (inactive) | GI50 [41]: 15.1 µM (inactive) | GI50 [42]: 11.5 µM (inactive) | GI50 [43]: 26 µM (inactive) | GI50 [44]: 16.7 µM (inactive) | GI50 [45]: 18.9 µM (inactive) | GI50 [46]: 16.3 µM (inactive) | GI50 [47]: 1.72 µM (inactive) | GI50 [48]: 6.58 µM (inactive) | GI50 [49]: 10.2 µM (inactive) | GI50 [50]: 22.3 µM (inactive) | GI50 [51]: 7.71 µM (inactive) | GI50 [52]: 18.8 µM (inactive) | GI50 [53]: 12.8 µM (inactive) | GI50 [54]: 17.8 µM (inactive)

CCN1C(=O)C(=Cc2ccc(-c3ccccc3)cc2)C(=O)N(CC)C1=S
GI50 [1]: > 100 µM (inactive) | GI50 [2]: > 100 µM (inactive) | GI50 [3]: > 100 µM (inactive) | GI50 [4]: > 100 µM (inactive) | GI50 [5]: > 100 µM (inactive) | GI50 [55]: 48.9 µM (inactive) | GI50 [6]: > 100 µM (inactive) | GI50 [7]: > 100 µM (inactive) | GI50 [8]: > 100 µM (inactive) | GI50 [56]: > 100 µM (inactive) | GI50 [9]: 97.3 µM (inactive) | GI50 [10]: > 100 µM | GI50 [11]: 35.5 µM (inactive) | GI50 [12]: > 100 µM (inactive) | GI50 [13]: > 100 µM (inactive) | GI50 [14]: > 100 µM (inactive) | GI50 [15]: > 100 µM (inactive) | GI50 [16]: > 100 µM (inactive) | GI50 [17]: 38.5 µM (inactive) | GI50 [18]: > 100 µM (inactive) | GI50 [19]: > 100 µM (inactive) | GI50 [20]: > 100 µM (inactive) | GI50 [21]: > 100 µM (inactive) | GI50 [22]: > 100 µM (inactive) | GI50 [23]: > 100 µM (inactive) | GI50 [24]: 30.3 µM (inactive) | GI50 [25]: > 100 µM (inactive) | GI50 [26]: > 100 µM (inactive) | GI50 [27]: > 100 µM (inactive) | GI50 [28]: > 100 µM (inactive) | GI50 [30]: 34.7 µM (inactive) | GI50 [31]: > 100 µM (inactive) | GI50 [32]: > 100 µM (inactive) | GI50 [33]: > 100 µM (inactive) | GI50 [34]: > 100 µM (inactive) | GI50 [35]: > 100 µM (inactive) | GI50 [57]: > 100 µM (inactive) | GI50 [36]: > 100 µM (inactive) | GI50 [37]: > 100 µM (inactive) | GI50 [38]: > 100 µM (inactive) | GI50 [39]: > 100 µM (inactive) | GI50 [40]: > 100 µM (inactive) | GI50 [41]: > 100 µM (inactive) | GI50 [42]: > 100 µM (inactive) | GI50 [43]: > 100 µM (inactive) | GI50 [44]: > 100 µM (inactive) | GI50 [45]: > 100 µM (inactive) | GI50 [46]: 71.8 µM (inactive) | GI50 [48]: > 100 µM (inactive) | GI50 [49]: > 100 µM (inactive) | GI50 [50]: > 100 µM (inactive) | GI50 [51]: 75.2 µM (inactive) | GI50 [52]: > 100 µM (inactive) | GI50 [53]: > 100 µM (inactive) | GI50 [54]: 79.4 µM (inactive)

CCN1CCC(C)OP1(=O)Cc1ccccc1 (stereo unspecified)
GI50 [1]: > 100 µM (inactive) | GI50 [2]: > 100 µM (inactive) | GI50 [3]: > 100 µM (inactive) | GI50 [4]: > 100 µM (inactive) | GI50 [5]: > 100 µM (inactive) | GI50 [6]: > 100 µM (inactive) | GI50 [7]: > 100 µM (inactive) | GI50 [8]: > 100 µM (inactive) | GI50 [56]: > 100 µM (inactive) | GI50 [9]: > 100 µM (inactive) | GI50 [10]: > 100 µM | GI50 [12]: > 100 µM (inactive) | GI50 [14]: > 100 µM (inactive) | GI50 [16]: > 100 µM (inactive) | GI50 [17]: > 100 µM (inactive) | GI50 [18]: > 100 µM (inactive) | GI50 [19]: > 100 µM (inactive) | GI50 [20]: > 100 µM (inactive) | GI50 [21]: > 100 µM (inactive) | GI50 [22]: > 100 µM (inactive) | GI50 [23]: > 100 µM (inactive) | GI50 [25]: > 100 µM (inactive) | GI50 [26]: > 100 µM (inactive) | GI50 [27]: > 100 µM (inactive) | GI50 [28]: > 100 µM (inactive) | GI50 [30]: > 100 µM (inactive) | GI50 [31]: 46.5 µM (inactive) | GI50 [32]: > 100 µM (inactive) | GI50 [33]: > 100 µM (inactive) | GI50 [34]: > 100 µM (inactive) | GI50 [35]: > 100 µM (inactive) | GI50 [57]: > 100 µM (inactive) | GI50 [37]: > 100 µM (inactive) | GI50 [38]: > 100 µM (inactive) | GI50 [39]: > 100 µM (inactive) | GI50 [41]: > 100 µM (inactive) | GI50 [42]: > 100 µM (inactive) | GI50 [43]: > 100 µM (inactive) | GI50 [45]: > 100 µM (inactive) | GI50 [47]: > 100 µM (inactive) | GI50 [48]: > 100 µM (inactive) | GI50 [49]: > 100 µM (inactive) | GI50 [50]: > 100 µM (inactive) | GI50 [51]: > 100 µM (inactive) | GI50 [52]: > 100 µM (inactive) | GI50 [53]: > 100 µM (inactive) | GI50 [54]: > 100 µM (inactive)
